The values that follow come from article PMC11784096, “Synthesis, antibacterial evaluation and in silico studies of novel 2-(benzo[d]thiazol-2-yl)-N-arylacetamides and their derivatives as potential DHFR inhibitors” (BMC Chemistry, 2025).

The structures appear in SMILES notation. In brackets after ≈: the same amount, converted by molar mass. Read-outs that look alike come from different tables or passages of the source.

The test system of assay [1] is E. coli. Put plainly: Minimum inhibition concentration, serial dilution. The format is cell-based, Escherichia coli. Conditions: Escherichia coli, 37 °C. As for the experimental part:
(§1) For each strain, three to five isolated colonies were selected from the fresh agar plate and transferred into a tube containing 3-4 ml of the sterile broth medium. The bacterial suspension was mixed well and incubated at 35-37 °C for 2-6 hours. […] After that, 1 mg of the tested compound (antimicrobial agent) was dissolved in 1 ml of DMSO and a two-fold serial dilution was done using a broth medium. A fixed volume of the prepared bacterial inoculum was added to each tube and incubated at 37 °C for 16-20 hours. The MIC is defined as the lowest concentration of the antimicrobial agent that inhibits visible growth of the tested isolate as observed with the unaided eye.

In assay [2] the test system is St. aureus. Put plainly: Agar diffusion method, inhibition zone diameter. In kind it is cell-based, Staphylococcus aureus. Conditions: Gram-positive. The text has this:
(§2) The bacterial growth inhibition activity of most of the newly synthesized compounds was examined against different Gram-positive and Gram-negative strains. The Agar diffusion method was used to assess the antibacterial and antifungal activity. The Gram-negative strains were: E. coli, K. pneumonia, P. aeruginosa and A. baumannii, the Gram-positive strains were: St. aureus, St. mutans and the standard antibiotics were gentamicin, tigecycline and ampicillin.
(§3) The agar-based media plate surface was inoculated by spreading a volume of the microbial inoculum over the entire agar surface.
(§4) Using a sterile cork borer or a tip, a hole with a diameter of 6 to 8 mm was made.
(§5) Using a micropipette, (20 µL) volume of the antimicrobial agent or extract solution at the desired concentration was introduced into the well.
(§6) The inoculated plates were incubated under suitable conditions depending upon the tested microorganism. The antimicrobial agent diffused through the agar medium and inhibited the growth of the microbial strain tested.
(§7) After a suitable incubation period (16 to 48 hours) according to the optimum growth conditions, the resulting inhibition zone diameters (in mm) around the wells were measured to the nearest whole millimeter at the point at which there is a prominent reduction in growth. If growth is insufficient at the recommended times, the plates should be re-incubated and read later.
(In general: Agar diffusion results depend on both activity and mobility in agar.)

The test system of assay [3] is K. pneumonia. Put plainly: Agar diffusion method, inhibition zone diameter. The format is cell-based, Klebsiella pneumonia. Conditions: Gram-negative.
Excerpt: as §2, §3, §4, §5, §6, §7

Assay [4] concerns St. aureus. As to the kind of experiment: Minimum inhibition concentration, serial dilution. Conditions: Staphylococcus aureus, 37 °C. In kind it is cell-based. As for the experimental part: as §1
The test system of assay [5] is St. mutans. As to the kind of experiment: Minimum inhibition concentration, serial dilution. The format is cell-based. Conditions: Streptococcus mutans, 37 °C. As for the experimental part: as §1
Assay [6] relates to K. pneumonia. As to the kind of experiment: Minimum inhibition concentration, serial dilution. In kind it is cell-based, Klebsiella pneumonia. Conditions: Klebsiella pneumoniae, 37 °C. As for the experimental part: as §1
For assay [7], the system named is E. coli. As to the kind of experiment: Agar diffusion method, inhibition zone diameter. In kind it is cell-based, Escherichia coli. Conditions: Gram-negative.
Excerpt: as §2, §3, §4, §5, §6, §7

Assay [8] relates to A. baumannii. Put plainly: Minimum inhibition concentration, serial dilution. In kind it is cell-based, Acinetobacter baumannii. Conditions: Acinetobacter baumannii, 37 °C. As for the experimental part: as §1
Assay [9] relates to any bacterial strain. As to the kind of experiment: Agar diffusion method, stated for all strains together. The format is cell-based. Conditions: in words.
Excerpt: as §2, §3, §4, §5, §6, §7

Assay [10] relates to all tested Gram-negative and Gram-positive strains. As to the kind of experiment: Minimum inhibition concentration, stated for all tested strains together. In kind it is cell-based. The protocol: as §1
The test system of assay [11] is P. aeruginosa. As to the kind of experiment: Minimum inhibition concentration, serial dilution. The format is cell-based, Pseudomonas aeruginosa. Conditions: Pseudomonas aeruginosa, 37 °C. As for the experimental part: as §1
The target of assay [12] is dihydrofolate reductase in Escherichia coli (Escherichia coli, UniProt P0ABQ4). Put plainly: In vitro DHFR inhibition assessment. Conditions: for inhibitory activity against DHFR relative to trimethoprim: fold of trimethoprim, in words. The format is biochemical.
Assay [13] has as its system St. mutans. As to the kind of experiment: Agar diffusion method, inhibition zone diameter. Conditions: Gram-positive. The format is cell-based.
Excerpt: as §2, §3, §4, §5, §6, §7

The test system of assay [14] is P. aeruginosa. As to the kind of experiment: Agar diffusion method, inhibition zone diameter. Conditions: Gram-negative. In kind it is cell-based, Pseudomonas aeruginosa.
Excerpt: as §2, §3, §4, §5, §6, §7

Assay [15] deals with A. baumannii. Put plainly: Agar diffusion method, inhibition zone diameter. The format is cell-based, Acinetobacter baumannii. Conditions: Gram-negative.
Excerpt: as §2, §3, §4, §5, §6, §7

In assay [16] the test system is DHFR. The arrangement: method as in PMID 28789907. Conditions: read-out: IC50 DHFR inhibition; cited from earlier work.
For assay [17], the system named is DHFR. Set-up: method as in doi:10.1007/s00706-017-2032-7. Conditions: read-out: IC50 against DHFR activity; cited from earlier work.
For assay [18], the system named is St. aureus, B. subtilis, K. pneumonia and E. coli. Set-up: method as in doi:10.1007/s12039-020-01844-8. Conditions: as printed in Fig. 2; cited from earlier work.
For assay [19], the system named is E. coli and P. aeruginosa. Set-up: method as in earlier work. Conditions: cited from earlier work.

dihydrofolate reductase in Escherichia coli, sequence (P0ABQ4 whole entry, the tested form may be a part): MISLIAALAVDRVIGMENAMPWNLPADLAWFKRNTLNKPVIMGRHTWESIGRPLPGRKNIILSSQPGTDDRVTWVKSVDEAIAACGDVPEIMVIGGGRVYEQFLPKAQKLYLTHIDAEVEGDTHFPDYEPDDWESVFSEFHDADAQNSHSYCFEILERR

For the compound `O=C(Cc1nc2ccccc2s1)Nc1ccccc1` [2a, 2-(Benzo[d]thiazol-2-yl)-N-phenylacetamide], the MIC – broadly, the smallest concentration in the dilution series that meets the test's criterion for growth inhibition – in [1] worked out at 0.25 µg/mL (≈ 0.932 µM); in assay [4], 0.25 µg/mL (≈ 0.932 µM); in [5], 0.0625 µg/mL (≈ 0.233 µM); in [6], 0.125 µg/mL (≈ 0.466 µM); in assay [8], 0.125 µg/mL (≈ 0.466 µM). Also, in [2], the “IZD St. aureus” value turned out to be 31 ± 1 mm. For the same compound, the “IZD K. pneumonia” value in assay [3] stood at 34 ± 0.8 mm. In assay [7], the “IZD E. coli” value is 34 ± 0.5 mm.
`Cc1ccc(NC(=O)Cc2nc3ccccc3s2)cc1` [2b, 2-(Benzo[d]thiazol-2-yl)-N-(p-tolyl)acetamide]: the “antibacterial activity against any bacterial strain” value in assay [9] is listed as “no activity”.
In the case of `O=C(Cc1nc2ccccc2s1)Nc1ccc(Cl)cc1` [2c, 2-(Benzo[d]thiazol-2-yl)-N-(4-chlorophenyl)acetamide], the MIC in assay [1], in assay [10], in assay [11], in [4], in assay [5] and in assay [6] was 0.0312 µg/mL (≈ 0.103 µM) each time. In addition, the MIC in [8] came out at 0.0312 µg/mL (≈ 0.103 µM). Besides, the “IZD St. aureus” value in assay [2] stood at 28 ± 1 mm. Also, in [12], the IC50 (in general, the concentration at which inhibition is half-maximal) came to 3.8 ± 0.198 µM. The “inhibitory activity against DHFR relative to trimethoprim” value in assay [12] is recorded as “about two-fold”. The “IZD St. mutans” value in assay [13] is recorded as 25 ± 1 mm. In addition, the “IZD P. aeruginosa” value in assay [14] worked out at 36 ± 1 mm. The “IZD K. pneumonia” value in assay [3] is 35 ± 1 mm. Besides, in assay [7], the “IZD E. coli” value is 35 ± 1 mm. For the same compound, the “IZD A. baumannii” value in [15] worked out at 35 ± 1 mm.
Regarding `COc1ccc(C=C(C(=O)Nc2ccc(Cl)cc2)c2nc3ccccc3s2)cc1OC` [4k, 2-(Benzo[d]thiazol-2-yl)-N-(4-chlorophenyl)-3-(3,4-dimethoxyphenyl)acrylamide], the minimal inhibitory concentration (MIC) in [1] was 0.125 µg/mL (≈ 0.277 µM); in [11] it was 0.125 µg/mL (≈ 0.277 µM); in assay [4], 0.0625 µg/mL (≈ 0.139 µM); in assay [6], 0.0625 µg/mL (≈ 0.139 µM); in [8], 0.0312 µg/mL (≈ 0.0693 µM). Besides, the “IZD St. aureus” value in [2] came to 25 ± 1.1 mm. Also, in assay [13], the “IZD St. mutans” value came out at 18 ± 1.1 mm. Further, the “IZD P. aeruginosa” value in assay [14] was found to be 20 ± 1 mm. In addition, the “IZD K. pneumonia” value in assay [3] is on record as 25 ± 1.1 mm. Besides, in assay [7], the “IZD E. coli” value was 22 ± 1.1 mm. The “IZD A. baumannii” value in [15] is listed as 23 ± 1.1 mm.
Regarding `O=C(Nc1ccccc1)C(=Cc1ccc(OC(=O)c2ccccc2)cc1)c1nc2ccccc2s1` [4m, 4-(2-(Benzo[d]thiazol-2-yl)-3-oxo-3-(phenylamino)prop-1-en-1-yl)phenylbenzoate], the MIC in assay [1], in [10], in assay [11], in assay [4], in assay [5] and in [6] was 0.0312 µg/mL (≈ 0.0656 µM) each time. In [8], this compound displayed an MIC of 0.0312 µg/mL (≈ 0.0656 µM). Besides, the “IZD St. aureus” value in [2] is listed as 25 ± 1.1 mm. Further, the midpoint of inhibition in [12], the IC50, lay at 2.44 ± 0.128 µM. In addition, the “inhibitory activity against DHFR relative to trimethoprim” value in [12] is on record as “about four-fold”. Besides, the “IZD St. mutans” value in assay [13] was 28 ± 1.1 mm. Further, in [14], the “IZD P. aeruginosa” value worked out at 30 ± 1 mm. Also, the “IZD K. pneumonia” value in assay [3] stood at 35 ± 1.1 mm. Besides, the “IZD E. coli” value in [7] stood at 35 ± 1.1 mm. Moreover, the “IZD A. baumannii” value in assay [15] worked out at 35 ± 1.1 mm.
In the case of `Cc1ccc(NC(=O)C(=Cc2ccc(OC(=O)c3ccccc3)cc2)c2nc3ccccc3s2)cc1` [4n, 4-(2-(Benzo[d]thiazol-2-yl)-3-oxo-3-(p-tolylamino)prop-1-en-1-yl)phenylbenzoate], the “antibacterial activity against any bacterial strain” value in assay [9] was “no antibacterial activity”.
With `Cc1ccc(-n2c(N)c(C#N)c(-c3ccccc3)c(-c3nc4ccccc4s3)c2=O)cc1` [11c, 2-Amino-5-(benzo[d]thiazol-2-yl)-6-oxo-4-phenyl-1-(p-tolyl)-1,6-dihydropyridine-3-carbonitrile], the minimum inhibitory concentration (MIC) in assay [1], in [11], in assay [6] and in [8] was 0.0315 µg/mL (≈ 0.0725 µM) in each case. In addition, in assay [12], the IC50 turned out to be 15 ± 0.785 µM. Besides, the “inhibitory activity against DHFR relative to trimethoprim” value in assay [12] is reported as “half”. Moreover, in assay [14], the “IZD P. aeruginosa” value is 35 ± 1 mm. Moreover, in assay [3], the “IZD K. pneumonia” value was 36 ± 1 mm. In addition, the “IZD E. coli” value in assay [7] is given as 35 ± 1 mm. The “IZD A. baumannii” value in assay [15] came out at 35 ± 1 mm.
For the compound `CC1(C)S[C@@H]2[C@H](NC(=O)[C@H](N)c3ccccc3)C(=O)N2[C@H]1C(=O)O` [Ampicillin, reference compound], in assay [2], the “IZD St. aureus” value is 29 ± 0.2 mm. Moreover, the “IZD St. mutans” value in [13] is 22 ± 0.1 mm. The MIC in [4] and in assay [5] was 0.0625 µg/mL (≈ 0.179 µM) each time.
As for `Clc1ccc(/C=N/c2nc3ccccc3s2)cc1` [II], the concentration for half-maximal inhibition (IC50) in assay [16] was 0.0312 µM.
Turning to `Nc1nc(N)c(-c2nc3ccccc3s2)c(CCCOC(=O)CCl)n1` [IV], in assay [17], the IC50 is 1.3 µM.
`O=[N+]([O-])c1cccc(/C=N/c2nc3ccccc3s2)c1` [I]: in assay [16], the IC50 is 0.0415 µM.
As for `O=C1CSC(c2cccc(Cl)c2Cl)N1c1nc2cc(OC(F)(F)F)ccc2s1` (stereo not shown) [VII], in [18], the MIC is 100 to 250 µg/mL.
Consider `CC(=O)Nc1cc(-c2nc3ccccc3s2)ccc1OCC(=O)N/N=C/c1ccc(O)cc1` [V], for which the MIC in assay [19] was 0.2 µg/mL (≈ 0.434 µM).
